From article PMC10743905, “Design, Synthesis, and In Vitro and In Vivo Bioactivity Studies of Hydrazide–Hydrazones of 2,4-Dihydroxybenzoic Acid” (International Journal of Molecular Sciences, 2023)
In brackets after ≈: the same amount, converted by molar mass. Entries after “also recorded” stand apart in the source; their conditions may differ. Where two headings read alike, the source gives them in different places.

Tests used:
[1] = test system: Staphylococcus aureus ATCC 43300; assay: Broth microdilution MIC/MBC; format: cell-based; conditions: Staphylococcus aureus ATCC 43300 (MRSA)
Summary of the method: (§1)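 Minimal inhibitory concentrations are determined by broth microdilution following EUCAST and CLSI. DMSO-dissolved compounds are serially halved from 1000 to 0.488 µg/ml final; inocula are 0.5 McFarland.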

[2] = test system: Staphylococcus epidermidis ATCC 12228; assay: Broth microdilution MIC/MBC; format: cell-based; conditions: for MBC: ATCC12228
Summary of the method: as §1

[3] = test system: Salmonella typhimurium ATCC 14028; assay: Broth microdilution MIC/MBC; format: cell-based; conditions: for MBC / MIC: Salmonella enterica
Summary of the method: as §1

[4] = test system: Staphylococcus aureus ATCC 29213; assay: Broth microdilution MIC/MBC; format: cell-based; conditions: for MBC / MIC: ATCC29213
Summary of the method: as §1

[5] = test system: Micrococcus luteus ATCC 10240; assay: Broth microdilution MIC/MBC; format: cell-based; conditions: for MBC: ATCC10240
Summary of the method: as §1

[6] = test system: Proteus mirabilis ATCC 12453; assay: Broth microdilution MIC/MBC; format: cell-based; conditions: for MBC / MIC: ATCC12453
Summary of the method: as §1

[7] = test system: Pseudomonas aeruginosa ATCC 9027; assay: Broth microdilution MIC/MBC; format: cell-based; conditions: for MBC / MIC: ATCC9027
Summary of the method: as §1

[8] = test system: Danio rerio embryos; assay: Fish Embryo Acute Toxicity (FET) test, OECD No. 236; conditions: for toxicity for zebrafish embryos and larvae (in words): FET test, based on LC50; for percentage of non-lethal morphological abnormalities: zebrafish larvae 96 hpf; for heart rate vs negative (E3) and solvent (1% DMSO) controls: zebrafish larvae, 96 h
Protocol: Wild-type AB strain zebrafish (Danio rerio) were housed in the Experimental Medicine Centre of Medical University of Lublin (Lublin, Poland), where all the experimental procedures on embryos and larvae were carried out. The animals were kept on a recirculating water supply at 26 ± 1 °C and a 10/14 dark–light cycle, and they were fed with artemia and commercial feed. Danio rerio embryos were obtained from females between 4 and 15 months of age. […] In order to avoid genetic bias in the study, eggs were randomly collected from at least three breeding groups, rinsed, and placed in Petri dishes in the cultured medium, which for Danio rerio is E3 solution. […] In accordance with the legislation of the European Union and Poland, the experiments performed on the earliest life-stages of Danio rerio until 120 h post-fertilization (120 hpf), not defined as protected, are not subject to regulations for animal experimentation.
They address the testing of chemicals using the Fish Embryo Acute Toxicity (FET) test with the species Danio rerio.
Immediately after fertilization, eggs were placed in sterile 24-well plates and exposed for 96 h to at least five concentrations of the test chemical, ranging from 1 to 500 µM and prepared ex tempore on each day of exposure, according to the principle of one egg per well and one concentration per plate. In each plate, 20 wells were filled with the solutions of the tested substance, and 4 wells of the last column were a negative internal control with E3 medium. Each well was filled with 2 mL of solution. Positive control plates were also prepared according to this scheme with 4 mg/L of 3,4-dichloroaniline (Sigma-Aldrich, Poznań, Poland) and a negative control with E3, and a negative solvent control with 1% DMSO, which was used as a solvent for the tested substances. At four time points, microscopic observations were made every 24 h. As indicators of mortality (so-called terminal observations; when at least one of these occurs, embryonic death is declared), the following were recorded: the coagulation of embryos, a lack of somite formation, a lack of detachment of the tail from the yolk sac and a lack of a heartbeat, which was observed from the 48th hour of the study. To confirm the absence of a heartbeat, a microscopic observation was conducted at 80× magnification for one minute. Then, the solutions of the tested chemicals, to maintain their constant composition throughout the test, were replaced with fresh ones, and the plates were incubated for another 24 h in an incubator at 26 ± 1 °C. […] In addition, a quantitative and qualitative summary of the morphological and physiological abnormalities that occurred in the tested Danio rerio embryos and larvae was also made. These included yolk sac edema, pericardial edema, spinal flexure, head deformities, tail deformities, developmental delay defined as a lack of hatching success for 96 hpf larvae, and also bradycardia.
Regression analysis was performed with Excel, and the above-mentioned values were obtained from the linear type of regression analysis. […] The results obtained from the heart rate study of 96 hpf zebrafish larvae were subjected to statistical analysis using one-way analysis of variance (ANOVA) and a post hoc Bonferroni test. The significance level was taken as p < 0.05.

[9] = zebrafish, 500 µM (150.62 mg/L)

Structure (SMILES)	MBC [1]	MBC/MIC [1]	MIC [1]	MBC/MIC [2]	MBC [2]	MIC ([2]; ATCC12228, read-out: MIC)	MBC/MIC [3]	MBC [3]	MIC [3]	MBC/MIC [4]	MBC [4]	MIC [4]	MBC/MIC [5]	MBC [5]	MIC ([5]; ATCC10240, read-out: MIC)	MBC/MIC [6]	MBC [6]	MIC [6]	MIC [7]	toxicity for zebrafish embryos and larvae (in words) [8]	other results
CCCc1ccc(/C=N/NC(=O)c2ccc(O)cc2O)cc1 [Compound 13, 2,4-dihydroxy-N-[(4-propylphenyl)methylidene]benzohydrazide]	> 1000 µg/mL	> 1	1000 µg/mL (≈ 3.35 mM)	> 1	> 1000 µg/mL	1000 µg/mL (≈ 3.35 mM)	> 1	> 1000 µg/mL	1000 µg/mL (≈ 3.35 mM)	> 1	> 1000 µg/mL	1000 µg/mL (≈ 3.35 mM)	> 1	> 1000 µg/mL	1000 µg/mL (≈ 3.35 mM)	> 1	> 1000 µg/mL	1000 µg/mL (≈ 3.35 mM)	1000 µg/mL (≈ 3.35 mM)	–	MBC/MIC [7]: > 1; MBC [7]: > 1000 µg/mL
O=C(N/N=C/c1cc(I)cc(I)c1O)c1ccc(O)cc1O [Compound 18, 2,4-dihydroxy-N-[(2-hydroxy-3,5-diiodophenyl)methylidene]benzohydrazide]	31.2 µg/mL (≈ 0.0596 mM)	8	3.91 µg/mL (≈ 0.00746 mM)	8	7.81 µg/mL (≈ 0.0149 mM)	0.98 µg/mL (≈ 0.00187 mM)	> 1	> 1000 µg/mL	1000 µg/mL (≈ 1.91 mM)	2	15.6 µg/mL (≈ 0.0298 mM)	7.81 µg/mL (≈ 0.0149 mM)	4	1.95 µg/mL (≈ 0.00372 mM)	0.48 µg/mL (≈ 0.000916 mM)	> 2	> 1000 µg/mL	500 µg/mL (≈ 0.954 mM)	1000 µg/mL (≈ 1.91 mM)	–	MIC [2]: 0.98 µg/mL (≈ 0.00187 mM); MIC [5]: 0.48 µg/mL (≈ 0.000916 mM); MBC/MIC [7]: > 1; MBC [7]: > 1000 µg/mL
O=C(N/N=C/c1ccccc1[N+](=O)[O-])c1ccc(O)cc1O [Compound 19, 2,4-dihydroxy-N-[(2-nitrophenyl)methylidene]benzohydrazide]	> 1000 µg/mL	> 2	500 µg/mL (≈ 1.66 mM)	> 2	> 1000 µg/mL	500 µg/mL (≈ 1.66 mM)	> 1	> 1000 µg/mL	1000 µg/mL (≈ 3.32 mM)	> 1	> 1000 µg/mL	1000 µg/mL (≈ 3.32 mM)	> 1	> 1000 µg/mL	1000 µg/mL (≈ 3.32 mM)	> 1	> 1000 µg/mL	1000 µg/mL (≈ 3.32 mM)	1000 µg/mL (≈ 3.32 mM)	nontoxic; also recorded: negligible toxicity	MBC/MIC [7]: > 1; MBC [7]: > 1000 µg/mL; percentage of non-lethal morphological abnormalities [8]: ≤ 25%
O=C(N/N=C/c1cccc([N+](=O)[O-])c1)c1ccc(O)cc1O [Compound 20, 2,4-dihydroxy-N-[(3-nitrophenyl)methylidene]benzohydrazide]	–	–	> 1000 µg/mL	–	–	> 1000 µg/mL	–	–	> 1000 µg/mL	–	–	> 1000 µg/mL	–	–	> 1000 µg/mL	–	–	> 1000 µg/mL	> 1000 µg/mL	nontoxic	percentage of non-lethal morphological abnormalities [8]: ≤ 25%
O=C(N/N=C/c1ccc([N+](=O)[O-])cc1)c1ccc(O)cc1O [Compound 21, 2,4-dihydroxy-N-[(4-nitrophenyl)methylidene]benzohydrazide]	> 1000 µg/mL	> 2	500 µg/mL (≈ 1.66 mM)	> 2	> 1000 µg/mL	500 µg/mL (≈ 1.66 mM)	–	–	> 1000 µg/mL	> 2	> 1000 µg/mL	500 µg/mL (≈ 1.66 mM)	> 1	> 1000 µg/mL	1000 µg/mL (≈ 3.32 mM)	–	–	> 1000 µg/mL	> 1000 µg/mL	moderate toxicity	percentage of development delay [8, 9]: 10%; percentage of tail malformation [8, 9]: 55%
O=C(N/N=C/c1ccccc1Cl)c1ccc(O)cc1O [Compound 22, N-[(2-chlorophenyl)methylidene]-2,4-dihydroxybenzohydrazide]	–	–	> 1000 µg/mL	> 1	> 1000 µg/mL	1000 µg/mL (≈ 3.44 mM)	–	–	> 1000 µg/mL	–	–	> 1000 µg/mL	–	–	> 1000 µg/mL	–	–	> 1000 µg/mL	> 1000 µg/mL	quite toxic	–
O=C(N/N=C/c1ccccc1Br)c1ccc(O)cc1O [Compound 23, N-[(2-bromophenyl)methylidene]-2,4-dihydroxybenzohydrazide]	–	–	> 1000 µg/mL	> 2	> 1000 µg/mL	500 µg/mL (≈ 1.49 mM)	–	–	> 1000 µg/mL	–	–	> 1000 µg/mL	–	–	> 1000 µg/mL	–	–	> 1000 µg/mL	> 1000 µg/mL	quite toxic	percentage of yolk sac edema ([8]; zebrafish embryos and larvae, 100 µM (35.52 mg/L)): 80%
O=C(N/N=C/c1ccccc1F)c1ccc(O)cc1O [Compound 24, N-[(2-fluorophenyl)methylidene]-2,4-dihydroxybenzohydrazide]	–	–	> 1000 µg/mL	–	–	> 1000 µg/mL	–	–	> 1000 µg/mL	–	–	> 1000 µg/mL	> 1	> 1000 µg/mL	1000 µg/mL (≈ 3.65 mM)	–	–	> 1000 µg/mL	> 1000 µg/mL	nontoxic	heart rate vs negative (E3) and solvent (1% DMSO) controls ([8]; 50 µM (13.71 mg/L)): no changes; heart rate vs negative (E3) and solvent (1% DMSO) controls ([8]; 100 µM (27.42 mg/L), p < 0.01): decrease in heartbeat (bradycardia); heart rate vs negative (E3) and solvent (1% DMSO) controls ([8]; 500 µM (137.12 mg/L), p < 0.001): the reduction was very statistically significant; percentage of pericardial edema ([8]; zebrafish, 100 µM (27.42 mg/L)): 65%; percentage of pericardial edema ([8]; zebrafish, 500 µM (137.12 mg/L)): 85%
